Read-outs that look alike come from different tables or passages of the source.
Columns and labels:
[1] = target: T1, Human STING (hSTING-R232) (Homo sapiens, UniProt Q86WV6, H232R); test: Activation of human STING signaling in THP1-Dual KI-hSTING-R232 cells (IRF promoter, QUANTI-Luc); format: cell-based; conditions: THP1 cell line, 24 h, read-out: EC50 IRF3
T1 construct: host or cells: THP1-Dual KI-hSTING-R232 cells
Description: Activation of Human STING Signaling in THP1 Cell Line
The cells were treated with 20 μl/well of compounds at 8 concentrations in duplicate in 96-well plate, and incubate for 24 h. To measure IRF promoter activity, 15 μl of cell culture supernatant was mixed with 45 μl QUANTI-Luc in an opaque 96-well plate and immediately measured using Luminometer; to measure NF-κB promoter activity, 15 μl of supernatant was mixed with 90 μl QUANTI-Blue, and incubated at 37° C. for 90 minutes, and read at OD650 nm. EC50 was calculated by nonlinear regression fit with 4-parameter responsive curve fitting using GraphPad Version 8 software (Table 1).

[2] = target: T2, hSTING R232 (Homo sapiens, UniProt Q86WV6, H232R); test: IRF activation in 293T-Dual hSTING R232 cells (Quanti-Blue); format: cell-based; conditions: 24 hr, read-out: EC50 IRF3
T2 construct: host or cells: 293T-Dual hSTING R232 cells
T2 sequence (Q86WV6 whole entry H232R): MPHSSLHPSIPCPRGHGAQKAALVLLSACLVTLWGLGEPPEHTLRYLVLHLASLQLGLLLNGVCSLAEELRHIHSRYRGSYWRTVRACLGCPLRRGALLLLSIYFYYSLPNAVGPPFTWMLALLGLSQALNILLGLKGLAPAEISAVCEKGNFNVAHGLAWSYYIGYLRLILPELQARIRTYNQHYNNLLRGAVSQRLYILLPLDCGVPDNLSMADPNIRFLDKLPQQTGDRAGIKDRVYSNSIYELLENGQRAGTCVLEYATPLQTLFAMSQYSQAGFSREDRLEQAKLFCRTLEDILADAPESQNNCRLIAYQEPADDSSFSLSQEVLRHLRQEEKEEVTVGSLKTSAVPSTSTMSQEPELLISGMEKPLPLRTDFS
Description: A test compound with a serial of 1:3 dilution was prepared in complete medium, and 20 μL of the compound was added to the corresponding well, and incubated with the cells at 37° C. incubator for 24 hr.
To determine the effect on interferon regulatory factor (IRF) activation, 15 μL of cell culture supernatant was transferred into a fresh 96-half area-well plate, 90 μL of Quanti-Blue was added to each well and incubated at 37° C. for 90 min. OD at 650 nm was recorded. EC50 was calculated by nonlinear regression fit with 4-parameter responsive curve fitting using GraphPad Version 8 software (Table 2).

[3] = tested on: MC38 tumor cells; conditions: IT 5 ug/mouse every three days, three injections; for anti-tumor efficacy (tumor growth, FIG. 1): single agent, subcutaneous MC38
Description: To Evaluate the in vivo efficacy of A5-I, A5-II, A6-I and A6-II, C57BL/6 mouse was subcutaneously inoculated in the right flank with MC38 tumor cells (1×10^6) in 40 ul of HBSS for tumor development. Treatment started when tumor size reached around 80-100 mm^3, on day 7 after tumor cell implantation. Compounds were administered by IT injection and repeated every three days with total three injections. […] Tumor volumes were measured twice to thrice weekly.

[4] = tested on: MC38 tumor cells; test: MC38 murine syngeneic model, Example 98 (Table 5); format: in vivo, C57BL/6 mouse; conditions: IT, Q3d × 3; doses per Table 5 (A5-I 3, A19 50 and 17, A33 17×2/8×1, A34 50, A38 51×1/17×2, A69 50, A71 50, A85 46 μg/mouse)
Description: Example 98. Evaluation of Compound A5-I, A19, A33, A34, A38, A69, A71 and A85 in MC38 Murine Syngeneic Model
Compounds (listed in Table 5), were administered by IT injection.

T1 sequence (Q86WV6 whole entry H232R): as above

In the case of `BP1(=O)OC[C@H]2O[C@@H](n3cnc4c(N)ncnc43)[C@H](F)[C@@H]2O[P@@](=O)(S)OC[C@H]2O[C@@H](n3cnc4c(=O)[nH]c(N)nc43)[C@H](F)[C@@H]2O1` (single isomer, unassigned) [Compound A1], the EC50 ([1]; Assay Results 1 (average of more than 2 runs)) is reported as 0.45 µM, the EC50 ([1]; Assay Results 2 (single run)) is reported as 0.564 µM and the EC50 [2] is reported as 0.059 µM.
For `B[P@]1(=O)OC[C@H]2O[C@@H](n3cnc4c(N)ncnc43)[C@H](F)[C@@H]2O[P@@](=O)(S)OC[C@H]2O[C@@H](n3cnc4c(N)ncnc43)[C@H](F)[C@@H]2O1` [Compound A5-I, ((2R,3R,3aR,5S,7aR,9R,10R,10aR,12S,14aR)-2,9-bis(6-amino-9H-purin-9-yl)-3,10-difluoro-12-mercapto-5,12-dioxidooctahydro-2H,7H-difuro [3,2-d:3′,2′-j][1,3,7,9]tetraoxa[2,8]diphosphacyclododecin-5-yl)trihydroborate], the “tumor regression (FIG. 1)” value [3] was “complete regression for all treated mice”, the “anti-tumor efficacy (tumor growth, FIG. 1)” value (“anti-tumor efficacy” below) [3] was “significant anti-tumor efficacy” and the “anti-tumor activity compared to vehicle-treated group (FIG. 5)” value [4] was “significantly improved anti-tumor activity”.
For `B[P@@]1(=O)OC[C@H]2O[C@@H](n3cnc4c(N)ncnc43)[C@H](F)[C@@H]2O[P@](=O)(S)OC[C@H]2O[C@@H](n3cnc4c(N)ncnc43)[C@H](F)[C@@H]2O1` [Compound A6-II], the “anti-tumor efficacy” value [3] was “significant anti-tumor efficacy”.
For `BP1(=O)OC[C@H]2O[C@@H](n3cnc4c(N)ncnc43)[C@H](F)[C@@H]2O[P@](=O)(S)OC[C@H]2O[C@@H](n3cnc4c(N)ncnc43)[C@H](F)[C@@H]2O1` (some centres unmarked) [Compound A6-I], the “anti-tumor efficacy” value [3] was “significant anti-tumor efficacy”.

Reference: US20240066133A1, “THERAPEUTIC AGENTS AND CONJUGATES THEREOF” (Beijing Xuanyi PharmaSciences Co., Ltd., priority 2020, published 2024)
